Data published in ChEMBL document CHEMBL1145907, “Requirements for specific binding of low affinity inhibitor fragments to the SH2 domain of (pp60)Src are identical to those for high affinity binding of full length inhibitors” (J Med Chem, 2003).

biological target: Proto-oncogene tyrosine-protein kinase Src (Homo sapiens, UniProt P12931); assay: Inhibitory activity against SH2 domain of human p60 c-Src tyrosine kinase using surface plasmon resonance (SPR) assay.
Sequence (P12931 2-536 limits assumed): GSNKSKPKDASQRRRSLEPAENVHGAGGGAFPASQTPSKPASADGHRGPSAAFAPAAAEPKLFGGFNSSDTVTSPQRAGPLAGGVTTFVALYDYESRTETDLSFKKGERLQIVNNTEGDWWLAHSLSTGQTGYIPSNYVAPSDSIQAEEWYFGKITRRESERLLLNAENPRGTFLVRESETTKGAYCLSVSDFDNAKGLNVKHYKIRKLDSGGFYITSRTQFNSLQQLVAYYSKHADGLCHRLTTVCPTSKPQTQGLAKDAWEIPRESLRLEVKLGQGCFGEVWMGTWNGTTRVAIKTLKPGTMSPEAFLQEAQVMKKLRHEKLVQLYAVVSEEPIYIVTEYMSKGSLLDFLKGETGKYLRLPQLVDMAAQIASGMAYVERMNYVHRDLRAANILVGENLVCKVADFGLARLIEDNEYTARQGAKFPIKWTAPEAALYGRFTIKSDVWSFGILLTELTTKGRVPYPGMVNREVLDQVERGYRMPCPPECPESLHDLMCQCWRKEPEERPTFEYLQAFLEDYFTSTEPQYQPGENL

Row | Structure (SMILES) | IC50 [mM]
1 | O=[N+]([O-])c1cc2c(cc1C(O)P(=O)(O)O)OCO2 (stereo not drawn) | 0.3
2 | O=P(O)(O)O [PHOSPHORIC ACID] | > 40
3 | O=C(O)CC(O)(CC(=O)O)C(=O)O [CITRIC ACID] | > 40
